The text below walks through data of ChEMBL document CHEMBL1201862, “PubChem BioAssay data set” (2004).

Each structure is given as a SMILES string.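 Step 1: Grow cells in 96-well plates. Step 2: Expose to compound for 48 hours at 5 concentrations. Step 3: Interpolate endpoints linearly; if unreached, use highest concentration. The concentration for 50% growth inhibition is given as GI50.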 Active and inactive are the calls of the source. Rule as the data show it: active = GI50 up to about 1.1 µM and inactive = higher.

Among the test systems are ACHN; CCRF-CEM; OVCAR-8; A549; Malme-3M; MOLT-4; HCT-15; HOP-92; LOX IMVI; 786-0; SN12C; COLO 205; SF-295; M14; NCI-H23; HCC 2998; HT-29; A498; NCI-H522.
Experiment in all cases: growth of human tumour cells (NCI), 48 h

For the molecule `COC(=O)/C=C1\CCC(C)O1` (configuration not stated), the GI50 in the assay with ACHN, in the assay with CCRF-CEM, in the assay on OVCAR-8, in the assay with A549, with Malme-3M and in the assay on MOLT-4 was > 100 µM (inactive) throughout. Moreover, the GI50 is > 100 µM in the assay on HCT-15; 24 µM (inactive) in the assay on HOP-92; > 100 µM (inactive) in the assay on LOX IMVI; > 100 µM (inactive) in the assay on 786-0; > 100 µM (inactive) in the assay on SN12C; > 100 µM (inactive) in the assay on COLO 205. The GI50 with SF-295, with M14, in the assay with NCI-H23, with HCC 2998 and in the assay on HT-29 was > 100 µM (inactive) each time.

For the molecule `CC1C=C(OC(=O)c2ccccc2)C(=O)C(n2cc(F)c(=O)n(C(=O)c3ccccc3)c2=O)O1` (configuration not stated), the GI50 in the assay on ACHN was 50.5 µM (inactive); with CCRF-CEM it was 18.1 µM (inactive); in the assay with OVCAR-8, 37.2 µM (inactive); in the assay with A549 it was > 100 µM (inactive); in the assay with Malme-3M it was 31 µM (inactive); with MOLT-4, 32.7 µM (inactive). In addition, the GI50 was 32.5 µM in the assay on HCT-15; 35.6 µM (inactive) in the assay with HOP-92; 23.1 µM (inactive) in the assay on LOX IMVI; 28.5 µM (inactive) with 786-0; 53.1 µM (inactive) with SN12C; 26.9 µM (inactive) with COLO 205. Moreover, the GI50 was 78 µM (inactive) in the assay on SF-295, 51.3 µM (inactive) in the assay with M14, 43 µM (inactive) in the assay on NCI-H23 and 34.7 µM (inactive) in the assay on HT-29.

With `CC1NOC(=O)C1/N=N/c1ccccc1Cl` (configuration not stated), the GI50 in the assay on ACHN was 27 µM (inactive); with CCRF-CEM it was 40.9 µM (inactive); in the assay with A498, 17 µM (inactive); in the assay with OVCAR-8, > 100 µM (inactive); with A549 it was 63.7 µM (inactive); in the assay on Malme-3M, 25.5 µM (inactive). For the same molecule, the GI50 with MOLT-4 was > 10 µM (inactive); in the assay on HOP-92 it was 21.6 µM (inactive); with LOX IMVI it was 20.6 µM (inactive); with 786-0, 26.5 µM (inactive); in the assay on SN12C it was 40.6 µM (inactive); in the assay on COLO 205 it was 57.7 µM (inactive). The GI50 in the assay on SF-295 is 74.1 µM (inactive); with M14, 40.6 µM (inactive); in the assay with NCI-H522 it was 17.4 µM (inactive); in the assay on NCI-H23, 29.9 µM (inactive); with HCC 2998, 48.3 µM (inactive).

With `Cn1cc(-c2ccc3c4ccccc4n(C)c3c2)c2ccccc21`, the GI50 in the assay with ACHN, with CCRF-CEM, in the assay with A498, in the assay with OVCAR-8, with A549 and with Malme-3M was > 100 µM (inactive) in each case. Besides, the GI50 with MOLT-4 was > 100 µM (inactive); in the assay on HCT-15, 36.6 µM; in the assay on LOX IMVI it was > 100 µM (inactive); in the assay with 786-0 it was > 100 µM (inactive); in the assay with SN12C, > 100 µM (inactive); in the assay on COLO 205, > 100 µM (inactive). For the same molecule, the GI50 with SF-295 is 94.4 µM (inactive); in the assay with M14 it was > 100 µM (inactive); in the assay with NCI-H522 it was > 100 µM (inactive); in the assay with NCI-H23 it was > 100 µM (inactive); with HCC 2998 it was > 100 µM (inactive); with HT-29, 89.9 µM (inactive).

Consider `Brc1cccc(C2(CCCC3(c4cccc(Br)n4)OCCO3)OCCO2)n1`, for which the GI50 was > 100 µM (inactive) in the assay with ACHN; > 100 µM (inactive) in the assay with A498; > 100 µM (inactive) in the assay on A549; > 100 µM (inactive) in the assay on MOLT-4; > 100 µM in the assay with HCT-15; > 100 µM (inactive) in the assay on HOP-92. The GI50 in the assay on LOX IMVI was > 100 µM (inactive); in the assay on 786-0, 59.7 µM (inactive); in the assay with SN12C it was > 100 µM (inactive); in the assay with COLO 205 it was > 100 µM (inactive); in the assay on SF-295 it was 68.7 µM (inactive); in the assay on M14, > 100 µM (inactive). The GI50 in the assay on NCI-H522 is 36.6 µM (inactive); with NCI-H23, > 100 µM (inactive); in the assay with HCC 2998, > 100 µM (inactive).

With `OCC1OC(n2nc(-c3ccccc3)nc2-c2cnccn2)C(O)C(O)C1O` (configuration not stated), the GI50 in the assay on CCRF-CEM was > 100 µM (inactive); with OVCAR-8, > 100 µM (inactive); in the assay on A549, > 100 µM (inactive); with MOLT-4 it was > 100 µM (inactive); in the assay on HCT-15, > 100 µM; in the assay on HOP-92, > 100 µM (inactive). Further, the GI50 in the assay with LOX IMVI, in the assay with 786-0, in the assay with SN12C, with COLO 205, in the assay with SF-295 and with M14 was > 100 µM (inactive) each time. Moreover, the GI50 in the assay on NCI-H522, in the assay on NCI-H23, in the assay with HCC 2998 and in the assay on HT-29 was > 100 µM (inactive) in each case.

Take `CCCCNC(=O)OCC(COc1ccccc1OC)OC(=O)NCCCC` (configuration not stated): the GI50 in the assay with ACHN, with CCRF-CEM, in the assay on A498, in the assay on OVCAR-8, in the assay with A549 and in the assay on Malme-3M was > 100 µM (inactive) in each case. In addition, the GI50 in the assay with MOLT-4 was > 100 µM (inactive); in the assay with HCT-15 it was > 100 µM; in the assay with LOX IMVI it was > 100 µM (inactive); with 786-0, > 100 µM (inactive); with SN12C, > 100 µM (inactive); in the assay with COLO 205 it was > 100 µM (inactive). For the same molecule, the GI50 is > 100 µM (inactive) in the assay on SF-295; > 100 µM (inactive) in the assay with M14; 45.4 µM (inactive) with NCI-H522; > 100 µM (inactive) in the assay on NCI-H23; > 100 µM (inactive) in the assay on HCC 2998; > 100 µM (inactive) in the assay with HT-29.

As to `COc1ccc2c(C3(O)CCNCC3)c[nH]c2c1`, the GI50 with ACHN, in the assay with CCRF-CEM, in the assay with OVCAR-8, in the assay with A549, in the assay on Malme-3M and in the assay on MOLT-4 was > 100 µM (inactive) in each case. Moreover, the GI50 in the assay with HCT-15 was > 100 µM; with HOP-92, > 100 µM (inactive); in the assay with LOX IMVI it was > 100 µM (inactive); in the assay on 786-0 it was > 100 µM (inactive); in the assay with SN12C, > 100 µM (inactive); in the assay with COLO 205, > 100 µM (inactive). For the same molecule, the GI50 in the assay on SF-295, in the assay with M14, in the assay with NCI-H522, with NCI-H23, with HCC 2998 and in the assay on HT-29 was > 100 µM (inactive) in each case.

As for `CC[N+](CC)(CC)/C(=N\S(=O)(=O)c1ccc(Cl)cc1)[N-]S(=O)(=O)c1cc(C)c(Cl)cc1S`, the GI50 in the assay with ACHN was > 100 µM (inactive); with CCRF-CEM, 59.3 µM (inactive); in the assay on A498 it was 41.9 µM (inactive); in the assay on OVCAR-8 it was > 100 µM (inactive); in the assay with MOLT-4, 2.51 µM (inactive); with HCT-15 it was 66.7 µM. For the same molecule, the GI50 in the assay on HOP-92 was 24.9 µM (inactive); with LOX IMVI it was > 100 µM (inactive); in the assay on 786-0, > 100 µM (inactive); in the assay on SF-295, 47 µM (inactive); in the assay with M14, 39.3 µM (inactive); in the assay with NCI-H522, 60.5 µM (inactive). Also, the figures for the GI50 in the assay on NCI-H23, with HCC 2998 and in the assay on HT-29 were 85.9 µM (inactive), 73.5 µM (inactive) and 41.7 µM (inactive), respectively.

As to `C1CCN2CC3CONC3C2C1` (configuration not stated), the GI50 with ACHN, with CCRF-CEM, with A498, in the assay with OVCAR-8, with A549 and in the assay on Malme-3M was > 100 µM (inactive) each time. The GI50 in the assay on MOLT-4 was > 100 µM (inactive); in the assay with HCT-15, > 100 µM; in the assay on LOX IMVI, > 100 µM (inactive); in the assay with 786-0, > 100 µM (inactive); in the assay on SN12C, > 100 µM (inactive); in the assay on COLO 205 it was > 100 µM (inactive). The GI50 in the assay with SF-295, with M14, in the assay with NCI-H522, with NCI-H23, with HCC 2998 and in the assay with HT-29 was > 100 µM (inactive) throughout.

Regarding `COC(=O)N(C(=O)OC)C(C(=O)O)C(C)C` (configuration not stated), the GI50 is > 100 µM (inactive) with ACHN; > 100 µM (inactive) in the assay with OVCAR-8; > 100 µM (inactive) in the assay on A549; 95.9 µM (inactive) in the assay with HOP-92; > 100 µM (inactive) with LOX IMVI; > 100 µM (inactive) with 786-0. In addition, the GI50 in the assay with SN12C, in the assay on COLO 205, in the assay on SF-295, in the assay on M14, in the assay with NCI-H522 and with NCI-H23 was > 100 µM (inactive) throughout. Moreover, the GI50 in the assay on HCC 2998 and in the assay with HT-29 was > 100 µM (inactive) throughout.

On to `O=S(=O)(O)c1cc(S(=O)(=O)O)c2c(/N=N/c3ccccc3)c(O)ccc2c1`, for which the GI50 was > 100 µM (inactive) in the assay with CCRF-CEM; > 100 µM (inactive) in the assay on A498; > 100 µM (inactive) in the assay on OVCAR-8; > 100 µM (inactive) in the assay with A549; > 100 µM (inactive) in the assay with MOLT-4; > 100 µM in the assay with HCT-15. Besides, the GI50 with HOP-92, with LOX IMVI, in the assay on 786-0, in the assay on SN12C, in the assay on COLO 205 and in the assay on SF-295 was > 100 µM (inactive) each time. Moreover, the GI50 in the assay on M14, with NCI-H23 and with HT-29 was > 100 µM (inactive) throughout.
